Measured values taken from patent US9505734B2, “Phenyl C-glucoside derivative containing deoxyglucose structure, preparation method and use thereof” (Tianjin Institute of Pharmaceutical Research, priority 2012, dated 2016).
“Also recorded” adds a separate entry of the source. Values belong to the compound of their own block, whether it stands above or below them.

Tests used:
[1] = influencing factors test: higher humidity stability; type: physicochemical
Text: (§1) The appearance, number of impurity and the amount of impurity (measured by HPLC) are compared with that of day 0.

[2] = test system: SD rats (type 2 diabetes model); test: model for rat urine glucose excretion (glucose-oxidase method); type: in vivo
Experimental: The health SD rats are injected intraperitoneally with multiple low doses of streptozotocin for modeling (type 2 diabetes model) after feeding with high-fat and high-sucrose diet, and the content of blood glucose is measured before and after modeling. After the modeling successful, the rats for modeling are randomly divided (8 rats/group) into one blank group (administering the same volume of 0.5% CMC sodium solution) and several groups for compounds to be tested (6 mg/kg) according to the content of 24-hour urine glucose and the body weight. Rats in each group are fasted for 16 hours before experiment. The experimental rats are administered intragastrically with glucose (2 g/kg) at 0.5 h after intragastrical administration with compounds to be tested. The urine is collected at the time-period of 0-12 h after administration, and the urine glucose values are measured at each time-period by glucose-oxidase method.
The inhibiting activity of the cocrystal of I-D1-6 and L-proline on SGLT2 is measured by the model for rat urine glucose excretion.
The health SD rats are injected intraperitoneally with multiple low doses of streptozotocin for modeling (type 2 diabetes model) after feeding with high-fat and high-sucrose diet for one month, and the content of blood glucose is measured before and after modeling. After the modeling successful, the rats for modeling are randomly divided (8 rats/group) into one blank group (administering the same volume of 0.5% CMC sodium solution) and groups of tested compound (6 mg/kg) according to the content of 24-hour urine glucose and the body weight. Rats in each group are fasted for 16 hours before experiment. The experimental rats are administered intragastrically with the glucose (2 g/kg) at 0.5 h after intragastrical administration with the cocrystal of I-D1-6 and L-proline prepared in Example 138. The urine is collected at the time-period of 0-12 h after administration, and the urine glucose values are measured at each time-period by glucose-oxidase method.

[3] = molecular target: hSGLT2 (Homo sapiens (Human), UniProt P31639); test: IC50 of inhibition on SGLT2; type: cell-based; conditions: for IC50 / Seletivity IC50 (hSGLT1)/IC50 (hSGLT2): Table 3
[4] = molecular target: hSGLT1 (Homo sapiens (Human), UniProt P13866); test: IC50 of inhibition on SGLT1; type: cell-based; conditions: for IC50: Table 3
[5] = influencing factors test: light stability; type: physicochemical; conditions: for Appearance / Number of impurity / Total amount of impurity (%): listed as I-D1-6 raw materials; for storage stability (in words): two-week stability test under light, higher temperature, higher humidity
Text: as §1

[6] = influencing factors test: higher temperature stability; type: physicochemical; conditions: higher temperature (45° C.), listed as I-D1-6 raw materials
Text: as §1

[7] = test system: Mice; conditions: mice, 10 mice/group, single intragastric dose 750 mg/kg, within one week;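 further: mice weighing 18–20 g, both sexes in equal proportion within each group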
Experimental: Mice (18-20 g) with equal numbers of male and female are divided into groups (10 mice/group), after normal feeding for 3 days, fasted for 12 hours, and then administered intragastrically with a single dose of 750 mg/kg compound respectively.

[8] = higher humidity, day 0, HPLC, listed as I-D1-6 raw materials
[9] = higher humidity, day 7, HPLC, listed as I-D1-6 raw materials
[10] = higher humidity, day 14, HPLC, listed as I-D1-6 raw materials

Chain of hSGLT1 (P13866 whole entry): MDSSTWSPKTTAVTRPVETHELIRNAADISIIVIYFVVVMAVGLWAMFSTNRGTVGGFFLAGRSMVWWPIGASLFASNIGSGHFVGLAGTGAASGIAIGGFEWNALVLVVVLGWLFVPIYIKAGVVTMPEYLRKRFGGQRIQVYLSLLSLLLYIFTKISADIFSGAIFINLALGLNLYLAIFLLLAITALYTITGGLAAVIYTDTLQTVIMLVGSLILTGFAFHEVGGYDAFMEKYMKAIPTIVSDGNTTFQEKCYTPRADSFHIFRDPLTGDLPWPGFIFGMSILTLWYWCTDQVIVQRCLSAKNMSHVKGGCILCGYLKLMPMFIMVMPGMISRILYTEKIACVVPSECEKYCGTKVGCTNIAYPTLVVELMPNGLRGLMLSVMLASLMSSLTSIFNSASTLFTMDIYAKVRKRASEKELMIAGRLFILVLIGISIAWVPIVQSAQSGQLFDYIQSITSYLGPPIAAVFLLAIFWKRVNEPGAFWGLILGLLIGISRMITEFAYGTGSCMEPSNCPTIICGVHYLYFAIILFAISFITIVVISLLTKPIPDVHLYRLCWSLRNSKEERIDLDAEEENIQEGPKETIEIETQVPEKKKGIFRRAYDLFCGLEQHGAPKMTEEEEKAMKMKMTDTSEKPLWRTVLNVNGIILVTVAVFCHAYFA
Chain of hSGLT2 (P31639 whole entry): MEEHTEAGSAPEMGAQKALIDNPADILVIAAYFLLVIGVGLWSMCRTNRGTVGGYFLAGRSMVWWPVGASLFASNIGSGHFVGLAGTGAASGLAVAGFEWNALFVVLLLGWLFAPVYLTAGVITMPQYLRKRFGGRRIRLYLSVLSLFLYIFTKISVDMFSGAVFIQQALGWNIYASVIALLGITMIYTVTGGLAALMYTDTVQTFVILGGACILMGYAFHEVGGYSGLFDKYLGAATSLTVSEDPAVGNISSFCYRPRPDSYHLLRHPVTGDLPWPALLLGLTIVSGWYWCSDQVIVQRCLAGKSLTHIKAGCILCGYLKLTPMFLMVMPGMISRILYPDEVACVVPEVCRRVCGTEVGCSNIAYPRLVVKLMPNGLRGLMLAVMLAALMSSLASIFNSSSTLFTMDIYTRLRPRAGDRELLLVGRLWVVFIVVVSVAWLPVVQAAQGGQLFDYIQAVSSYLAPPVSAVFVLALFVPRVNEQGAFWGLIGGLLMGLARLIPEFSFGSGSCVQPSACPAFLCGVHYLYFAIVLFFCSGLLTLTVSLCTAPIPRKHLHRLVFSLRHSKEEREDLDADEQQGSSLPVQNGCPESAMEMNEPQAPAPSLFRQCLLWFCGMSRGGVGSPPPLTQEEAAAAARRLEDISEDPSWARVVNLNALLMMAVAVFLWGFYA

Structure (SMILES): CCOc1ccc(Cc2cc(C3OC(C)C(O)C(O)C3O)ccc2Cl)cc1 [I-D1-6, (1S)-1-[4-chloro-3-(4-ethoxybenzyl)phenyl]-1,6-dideoxy-D-glucose]
Appearance ([1]; higher humidity (30% relative humidity at 30° C.), day 0, listed as I-D1-6 raw materials): white,
Number of impurity [1, 8]: 7
Total amount of impurity (%) [1, 8]: 0.89%
Appearance ([1]; higher humidity, day 7): white
Number of impurity [1, 9]: 7
Total amount of impurity (%) [1, 9]: 0.93%
Appearance ([1]; higher humidity, day 14): white
Number of impurity [1, 10]: 8
Total amount of impurity (%) [1, 10]: 1.08%
urine glucose excretion effect (in words) ([2]; comparison in words, rat urine glucose excretion model, 6 mg/kg): stronger urine glucose excretion effect
inhibition to SGLT2 (in words) ([3]; in words): inhibitory effect on SGLT2 enzyme; also recorded: much stronger inhibition to SGLT2
selectivity on SGLT1/SGLT2 (in words) ([3]; in words): much better selectivity on SGLT1/SGLT2
inhibition to SGLT1 (in words) ([4]; in words): much less inhibition to SGLT1
Appearance ([5]; light (natural daylight, about 80000 Lx), day 0): a white,
Number of impurity ([5]; light, day 0, HPLC): 7
Total amount of impurity (%) ([5]; light, day 0, HPLC): 0.89%
Number of impurity ([5]; light, day 7, HPLC): 7
Total amount of impurity (%) ([5]; light, day 7, HPLC): 0.93%
Appearance ([5]; light, day 7): a white,
Number of impurity ([5]; light, day 14, HPLC): 7
Total amount of impurity (%) ([5]; light, day 14, HPLC): 0.96%
Appearance ([5]; light, day 14): a white,
Number of impurity ([6]; day 0, HPLC): 7
Total amount of impurity (%) ([6]; day 0, HPLC): 0.89%
Appearance ([6]; day 0): white,
Number of impurity ([6]; day 7, HPLC): 8
Total amount of impurity (%) ([6]; day 7, HPLC): 0.97%
Appearance ([6]; day 7): white,
Number of impurity ([6]; day 14, HPLC): 9
Total amount of impurity (%) ([6]; day 14, HPLC): 1.13%
Appearance ([6]; day 14): white,

Structure (SMILES): CCOc1ccc(Cc2cc(C3OC(C)C(O)C(O)C3O)ccc2Cl)cc1 [cocrystal of I-D1-6 and L-proline, cocrystal of (1S)-1-[4-chloro-3-(4-ethoxybenzyl)phenyl]-1,6-dideoxy-D-glucose (I-D1-6) and L-proline]
urine glucose production ([2]; type 2 diabetes model SD rats, 6 mg/kg intragastrically, glucose 2 g/kg at 0.5 h, urine 0-12 h): 912 mg urine glucose/200 g body weight
Selectivity IC50 (hSGLT1)/IC50 (hSGLT2) ([3]; Table 4, cocrystal prepared in Example 138): 375
storage stability (in words) [5]: good storage stability
storage stability (in words) ([5]; listed as cocrystal): better storage stability

Structure (SMILES): CCOc1ccc(Cc2cc([C@]34OC[C@](C)(O3)[C@@H](O)[C@H](O)[C@H]4O)ccc2Cl)cc1 [drawing 292]
Behaviors after administration with the compound to be tested (deaths) [7]: 3 dead

Structure (SMILES): CCOc1ccc(Cc2cc([C@@]34OC[C@@](CO)(C[C@H](O)[C@H]3O)O4)ccc2Cl)cc1 [drawing 293]
Behaviors after administration with the compound to be tested (deaths) [7]: 4 dead

Structure (SMILES): CCOc1ccc(Cc2cc(C3OC(C)CC(O)C3O)ccc2Cl)cc1 (stereo not drawn) [drawing 294]
Behaviors after administration with the compound to be tested (deaths) [7]: 1 dead

Structure (SMILES): CC1OC(c2ccc(F)c(Cc3cc4ccccc4s3)c2)CC(O)C1O (stereo not drawn) [drawing 295]
Behaviors after administration with the compound to be tested (deaths) [7]: 1 dead

Structure (SMILES): CCc1ccc(Cc2c(Cl)ccc3c2COC32CC(O)CC(CO)O2)cc1 (stereo not drawn) [drawing 296]
Behaviors after administration with the compound to be tested (deaths) [7]: 1 dead

Structure (SMILES): OCC1CC(O)C(O)C(c2ccc(Cl)c(Cc3ccc(O[C@H]4CCOC4)cc3)c2)O1 (stereo partly drawn) [drawing 297]
Behaviors after administration with the compound to be tested (deaths) [7]: 2 dead

Structure (SMILES): CCc1ccc(Cc2c(Cl)ccc3c2COC32OC(CO)CC(O)C2O)cc1 (stereo not drawn) [drawing 298]
Behaviors after administration with the compound to be tested (deaths) [7]: 5 dead

Structure (SMILES): CCc1ccc(Cc2c(Cl)ccc3c2COC32OC(C)C(O)C(O)C2O)cc1 (stereo not drawn) [drawing 299]
Behaviors after administration with the compound to be tested (deaths) [7]: 3 dead

Structure (SMILES): CCOc1ccc(Cc2cc(C3SC(CO)C(O)CC3O)c(OC)cc2C)cc1 (stereo not drawn) [drawing 300]
Behaviors after administration with the compound to be tested (deaths) [7]: 0 dead

Structure (SMILES): CCOc1ccc(Cc2cc(C3SC(CO)C(O)CC3O)c(OC)cc2C)cc1 (stereo not drawn) [drawing 301]
Behaviors after administration with the compound to be tested (deaths) [7]: 3 dead

Structure (SMILES): CCOc1ccc(Cc2cc(C3SC(C)C(O)C(O)C3O)c(OC)cc2C)cc1 (stereo not drawn) [drawing 302]
Behaviors after administration with the compound to be tested (deaths) [7]: 4 dead

Structure (SMILES): CCOc1ccc(Cc2cc([C@]34C[C@@H](O)[C@H](O)[C@](CO)(CO3)O4)ccc2Cl)cc1 [drawing 303]
Behaviors after administration with the compound to be tested (deaths) [7]: 2 dead

Structure (SMILES): CCOc1ccc(Cc2cc([C@]34OC[C@](CO)(O3)[C@@H](O)C[C@H]4O)ccc2Cl)cc1 [drawing 304]
Behaviors after administration with the compound to be tested (deaths) [7]: 3 dead

Structure (SMILES): Cc1ccc(C2OC(C)C(O)CC2O)cc1Cc1ccc(-c2ccc(F)cc2)s1 (stereo not drawn) [drawing 305]
Behaviors after administration with the compound to be tested (deaths) [7]: 0 dead

Structure (SMILES): OCC1CCC(O)C(c2ccc(Cl)c(Cc3ccc(O[C@H]4CCOC4)cc3)c2)O1 (stereo partly drawn) [drawing 306]
Behaviors after administration with the compound to be tested (deaths) [7]: 2 dead

Structure (SMILES): CCOc1ccc(Cc2cc(C3CCC(O)C(CO)S3)c(OC)cc2C)cc1 (stereo not drawn) [drawing 307]
Behaviors after administration with the compound to be tested (deaths) [7]: 0 dead

Structure (SMILES): COc1ccc(Cc2cc(C3OC(C)C(O)C(O)C3O)ccc2Cl)cc1 (stereo not drawn) [drawing 308]
IC50 [3]: 3.3 nM
Seletivity IC50 (hSGLT1)/IC50 (hSGLT2) [3]: 26
IC50 [4]: 86 nM

Structure (SMILES): CCOc1ccc(Cc2cc(C3OC(C)C(O)C(O)C3O)ccc2Cl)cc1 (stereo not drawn) [drawing 309]
IC50 [3]: 0.67 nM
Seletivity IC50 (hSGLT1)/IC50 (hSGLT2) [3]: 374
IC50 [4]: 251 nM

IC50 [3]: 7.8 nM
Seletivity IC50 (hSGLT1)/IC50 (hSGLT2) [3]: 24
IC50 [4]: 187 nM
Structure (SMILES): CCOc1ccc(Cc2cc(C3OC(C)C(O)C(O)C3O)ccc2C)cc1 (stereo not drawn) [drawing 310]
